Experimental data reported in patent US7563462B2, “Methods for modulating eicosanoid metabolism” (The University of Texas MD Anderson Cancer Center, priority 2005, dated 2009).

Experiments:
PC3 cells [1] = assay: Eicosanoid add-back to composition-treated PC3 cells; assay type: cell-based, human
[2] = system: human tumor prostate (PC3); assay: Effect of 13-S-HODE on proliferation, PC3; assay type: cell-based; conditions: read-out: IC50 (inhibition of cancer cell line growth)
Method: (§1) The relative ability of 13-S-HODE to inhibit prostate and colon cancer cell lines with an IC50 of about 3-4 uM. This is of importance when compared to the content of 13-S-HODE in the inventive composition. That is, as shown in Table 2 above there is sufficient 13-S-HODE within the composition to account for inhibition of cell growth. No doubt other factors within the composition also contribute to its ability to inhibit prostate and colon tumor cell growth but the ability of 13-S-HODE within the composition to be able to do this is of obvious interest.

colon (LS174) = assay: Effect of 13-S-HODE on proliferation, LS174; assay type: cell-based; conditions: Homo sapiens, read-out: IC50 (inhibition of cancer cell line growth)
Method: as §1

[3] = system: lung adenocarcinoma (A549); assay: Effect of 13-S-HODE on proliferation, A549; assay type: cell-based, human
12-LOX = target: T1, 12-LOX (Homo sapiens, UniProt P18054); assay: 12-HETE levels / 12-LOX activity in PC3 cells; assay type: cell-based; design: key: ↓ indicates reduction, inhibition, or downregulation; ↑ indicates enhancement, activation, or upregulation
T1 construct: endogenous in cells; host or cells: PC3 human prostate cancer cells
T1 sequence (P18054 1-663): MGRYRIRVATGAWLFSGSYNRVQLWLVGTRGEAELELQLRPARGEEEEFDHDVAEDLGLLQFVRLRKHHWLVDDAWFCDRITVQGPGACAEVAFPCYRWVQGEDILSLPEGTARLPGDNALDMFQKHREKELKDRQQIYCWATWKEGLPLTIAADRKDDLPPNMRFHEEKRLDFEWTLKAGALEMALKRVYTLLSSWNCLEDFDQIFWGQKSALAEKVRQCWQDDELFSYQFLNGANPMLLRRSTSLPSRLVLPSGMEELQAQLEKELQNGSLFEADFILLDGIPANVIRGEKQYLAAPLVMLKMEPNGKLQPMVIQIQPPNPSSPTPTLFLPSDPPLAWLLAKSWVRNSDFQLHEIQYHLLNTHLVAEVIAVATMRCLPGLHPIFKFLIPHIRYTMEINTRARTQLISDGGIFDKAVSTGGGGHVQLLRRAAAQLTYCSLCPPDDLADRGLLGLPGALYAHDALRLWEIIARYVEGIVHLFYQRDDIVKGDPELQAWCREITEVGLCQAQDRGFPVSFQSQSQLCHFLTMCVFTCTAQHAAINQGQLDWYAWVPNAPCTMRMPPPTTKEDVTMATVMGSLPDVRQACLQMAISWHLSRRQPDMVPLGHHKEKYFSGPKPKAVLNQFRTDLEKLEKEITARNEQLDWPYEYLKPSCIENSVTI

PC3 cells [4] = assay: Cell cycle distribution by flow cytometry; assay type: cell-based, human
Method: The herbal product produces a clear G2/M accumulation of cells that is evident even at concentrations as low as 0.28 ul/ml. At higher concentrations, the G2/M phase is more evident as is a sub G0 peak indicative of apoptosis. Concomitant with the rise in numbers of cells in G2/M there is a progressive concentration-dependent fall of cells in the G1 portion of the cell cycle. Only 10% of control cells are routinely present at the G2/M phase, while treatment with 0.57 ul/ml of the inventive compositions results in greater than 40% of cells in a G2/M block. […] The G2/M percentage of cells is small (small dark shaded peak to the right in the figure. In the second plot (upper right) PC3 cells have been treated with 0.28 ul of the inventive compositions/ml tissue culture media. The size of the G2/M peak increases. The plot in the lower left (0.57 ul of the inventive compositions/ml) and in the lower right (1.14 ul/ml) show an increasing cell cycle block due to increased concentration of the inventive compositions.

PC3 cells [5] = assay: Phosphoprotein analyses of PC3 cell lysates; assay type: cell-based, human; design: key to Cyclin D1 / Cyclin D3 / Bcl-XL / Bax / Bcl-2 / pAKT / survivin / pRb content / Rb content: ↓ indicates reduction, inhibition, or downregulation; ↑ indicates enhancement, activation, or upregulation; conditions: nontoxic concentrations
Source text: The data in Table 5 were derived from phosphoprotein analyses of PC3 cell lysates after treatment with nontoxic concentrations of either the inventive compositions or baicalein, a component of Scutellaria. Proteins were separated using gel electrophoresis and then the gel was probed with monoclonal antibodies to the proteins. The antibodies could detect differences in phosphorylation status of the proteins. Gels were then quantified using a densitometer. There are many similarities in the changes in phosphorylation status signaling similar up regulation or down regulation of proteins involved in cell cycle block (e.g. cyclin D1, cyclin D3 and pRB) or proteins associated with apoptosis (e.g. surviving, Bcl-XL and Bcl-2).

PC3 cells [6] = assay: Cytotoxicity in PC3 cells; assay type: cell-based, human
PC3 cells [7] = assay: Western blot of 5-LOX, 12-LOX and COX-2 protein in PC3 cells; assay type: cell-based, human
[8] = growth inhibitory concentrations of the inventive compositions

Compound: CCCCC/C=C\C/C=C\C/C=C\C=C\[C@@H](O)CCCC(=O)O [5-HETE]
- cell proliferation after adding the eicosanoid to composition-treated PC3 cells (PC3 cells [1]; [8]): failed to block cellular proliferation

Compound: CCCCC/C=C\C[C@H](O)/C=C/C=C\C/C=C\CCCC(=O)O [12-HETE]
- cell proliferation after adding the eicosanoid to composition-treated PC3 cells (PC3 cells [1]; inventive compositions 1 ul/ml): near doubling of cell proliferation

Compound: CCCCCC(O)/C=C/C=C\CCCCCCCC(=O)O (stereo not drawn) [13-S-HODE, 13-hydroxyoctadeca-9Z, 11E-dienoic acid]
- IC50 [2]: 3 to 4 µM
- IC50 (colon (LS174)): 3 to 4 µM
- inhibition of cell growth [3]: not lung adenocarcinoma (A549) cell growth

Compound: O=c1cc(-c2ccccc2)oc2cc(O)c(O)c(O)c12 [Baicalein, baicalein]
- 12-LOX activity (12-LOX): ↓
- Cell cycle block (PC3 cells [4]): Yes
- Bax (PC3 cells [5]): ↑
- Bcl-2 (PC3 cells [5]): ↓
- Bcl-XL (PC3 cells [5]): ↓
- Cyclin D1 (PC3 cells [5]): ↓
- Cyclin D3 (PC3 cells [5]): ↓
- P27 (PC3 cells [5]): Strong ↓
- Rb content (PC3 cells [5]): ↑
- p21 (PC3 cells [5]): Strong ↓
- pAKT (PC3 cells [5]): ↓
- pRb content (PC3 cells [5]): ↓
- survivin (PC3 cells [5]): ↓
- Cytotoxicity (PC3 cells [6]): Yes

Compound: CCCCC[C@H](O)/C=C/[C@H]1[C@H](O)CC(=O)[C@@H]1C/C=C\CCCC(=O)O [PGE2]
- cell proliferation after adding the eicosanoid to composition-treated PC3 cells (PC3 cells [1]; [8]): failed to block cellular proliferation

Compound: CC(c1cc2ccccc2s1)N(O)C(N)=O (stereo not drawn) [Zileuton]
- cellular content of 5-LOX protein (Western blot) (PC3 cells [7]): did not produce any change in relative 5-LOX enzyme content within cells
